Test [1] relates to mutated limbal stem cells (mut-LSCs). The experiment in a line: In vitro migration test on IBIDI chambers. Format: cell-based, Human. The following applies: for rescue of cell migration: mutated limbal stem cells. As to the method:
(§1) Cells and culture conditions: Human mutated limbal epithelial stem cells (mut-LSCs) were obtained by genome editing (Crispr/cas9) of primary limbal stem cells, as described in Roux et al. (Roux, 2018 Stem cells). mut-LSCs and WT controls were cultured, as described earlier (Roux, 2018 Stem cells), in Keratinocyte serum-free medium (K-sfm) (Gibco™, Life Technologies), supplemented with 25 μg/mL Bovine Pituitary Extract (BPE; Gibco™, Life Technologies), 0.2 ng/mL Epidermal Growth Factor (EGF, Peprotech), 0.4 mM CaCl2, 2 mM Glutamine (Gibco™, Life Technologies) and 100 U/mL Penicillin/Streptomicin (Gibco™, Life Technologies). Routine subcultures were obtained by detaching cells with StemPro™ Accutase™ Cell Dissociation Reagent (Gibco™, Life Technologies) and replating at 2,000 cells/cm^2 (T-LSCs) or 3,000 cells/cm^2 (PAX6^+/− T-LSCs). All cells were negative for mycoplasma contamination (monthly tested).
In vitro migration test: WT and mut-LSCs were seeded into culture-inserts 2 well at 25,000 cells per well in 6-well plates (IBIDI®). […] Sixteen hours after plating, the inserts were removed creating a gap of 500 μm between cells. Patches were overlaid with culture medium and closure of the gap was monitored for 10 h, taking pictures at regular time intervals. Gap width was measured using ImageJ 1.49 software (NIH). Results are presented as percent of gap width normalized at 100% at t=0 h.

The test system of test [2] is Mut-LSCs. The test is described as follows: Rescue experiments: compound added to the culture medium of Mut-LSCs (cell toxicity, optimal concentration). It counts as cell-based, Human. The following applies: qRT-PCR, cell migration and cell adhesion. As to the method: as §1
(§2) Rescue experiments: Mut-LSCs were treated with each compound (Duloxetine, Ritanserine and Topotecan) directly added into the culture medium from 0.5 μg/mL to 4 μg/mL. No cell toxicity has been observed up to 10 μg/mL. The optimal concentration for each experiment (qRT-PCR, cell migration and cell adhesion) was 0.5 μg/mL. As positive control, 2 μg/mL recombinant PAX6 protein coupled with an 11R-tag (recPAX6, LD Biopharma Inc) was added, as described elsewhere (Roux et al. 2018 Stem cells).
In general terms: In qPCR the cycle at which signal appears reflects the starting amount.

For test [3], the system named is PAX6 protein. The test is described as follows: Western blot analysis of PAX6 protein production. It counts as cell-based, Human. Details: rescue of PAX6 haploinsufficiency in vitro: unit of the concentration uncertain. The note with it: for rescue of the production of endogenous PAX6 protein: mutated limbal stem cells. As to the method:
as §1
[…] No cell toxicity has been observed up to 10 μg/mL. […] As positive control, 2 μg/mL recombinant PAX6 protein coupled with an 11R-tag (recPAX6, LD Biopharma Inc) was added, as described elsewhere (Roux et al. 2018 Stem cells).
Western blot analysis: Cells were harvested as a dry pellet, […] recPAX6 protein or its buffer for rescue experiments, lysed in RIPA buffer supplemented with Protease and Phosphatase Inhibitor Cocktail EDTA-Free (Roche) for 15 min on ice and centrifuged for 15 min at 4° C. at 15,000×g. Protein concentration was measured using Pierce BCA Protein Assay kit (Thermo Fisher Scientific) following manufacturer instructions. Thirty micrograms of total protein or 10 ng of recPAX6 protein were loaded on a SDS-PAGE gel (10%), transferred to nitrocellulose membranes using semi-dry method. Membranes were pre-stripped using Re-Blot Plus Strong solution (EMD Millipore) for 15 min, blocked twice for 5 min in 5% milk solution and incubated in primary antibody (PAX6, ab2237, Millipore, 1/1,000) overnight at 4° C. After 3 washing of 10 min in TBS with 0.2% Tween (TBS-T), membranes were incubated for 1 h with secondary antibody (Goat anti-rabbit HRP, BD Pharmingen) diluted in TBS-T 5% milk solution at 1/1,000. Proteins were visualized using chemiluminescence detection (Clarity™ Western ECL Substrate, Bio-Rad) on a gel imaging system (ImageQuant LAS 4000). Membranes were stripped again, incubated 90 min at room temperature with ACTIN (sc1615, 1/500, Santa Cruz) antibody diluted in TBS-T 5% milk, washed 3×10 min in TBS-T and incubated for 1 h in secondary antibody (Rabbit anti-goat HRP, 1/20,000, Jackson ImmunoResearch) at room temperature before revelation. Signal quantifications were made using ImageJ 1.49 software (NIH). Results are presented after ACTIN normalization.
In general terms: Immunoblotting shows a protein as a band on a membrane.

The test system of test [4] is PAX6-target gene expression. The test is described as follows: qRT-PCR analysis of PAX6-target gene expression in rescue experiments. It counts as cell-based, Human. The following applies: mutated limbal stem cells. As to the method:
as §1, §2
qRT-PCR analysis: Cells were treated for 10 h with either compound or recPAX6 for rescue experiments, and harvested as a dry pellet. RNA was then extracted using RNEasy Mini kit (Qiagen) and cDNA were synthetized from 1 μg RNA using iScript cDNA synthesis kit (Bio-Rad). Quantitative PCR were performed in triplicate using […] SYBR Green PCR Master Mix (Absource Biotools). Expression of each gene was calculated using the 2^−ΔΔCt method. Results are presented as fold change normalized to B2M house-keeping gene and relative to control (treated with protein buffer or untreated) T-LSCs. Specific primers sequences used are listed in Suppl.

The test system of test [5] is PAX6. The experiment in a line: qRT-PCR analysis for PAX6 expression with amplicon sequencing. It counts as cell-based, Human. How it is done: as §1, with “T-LSCs).” for “T-LSCs). All cells were negative for mycoplasma contamination (monthly tested).”
qRT-PCR analysis: Cells were treated for 10 h with either compound or recPAX6 for rescue experiments, and harvested as a dry pellet. RNA was then extracted using RNEasy Mini kit (Qiagen) and cDNA were synthetized from 1 μg RNA using iScript cDNA synthesis kit (Bio-Rad). Quantitative PCR were performed in triplicate using […] SYBR Green PCR Master Mix (Absource Biotools). Expression of each gene was calculated using the 2^−ΔΔCt method. […] Specific primers sequences used are listed in Suppl.

For test [6], the system named is limbal stem cells (mut-LSC). The following applies: mut-LSC with a nonsense mutation found in patients; cited from earlier work.

`Cc1nc2sccn2c(=O)c1CCN1CCC(=C(c2ccc(F)cc2)c2ccc(F)cc2)CC1` [Ritanserine, ritanserin]: the “rescue of cell migration” value in test [1] is on record as “able to rescue”. In addition, the “optimal concentration for each experiment” value (“optimal concentration” below) in test [2] came to 0.5 µg/mL. The PAX6 protein production entry in test [3] (FIG. 4: mutated LT (W) cells, western blot, 0.5, 1 or 5 mM) is listed as “rescued”. The “rescue of the production of endogenous PAX6 protein” value (“rescue … of endogenous PAX6 protein” for short) in test [3] is “able to rescue”. For the same compound, the “rescue of PAX6-target gene expression” value in test [4] was “able to rescue”.

Regarding `CC[C@@]1(O)C(=O)OCc2c1cc1n(c2=O)Cc2cc3c(CN(C)C)c(O)ccc3nc2-1` [Topotecan, topotecan], the “rescue of migration of mutated limbal cells” value in test [1] (FIG. 2: mut-LT, 0.5 µg/mL, 2 h before migration start, IBIDI chambers) is on record as “can rescue”. Moreover, the “rescue of cell migration” value in test [1] was “able to rescue”. For the same compound, the “optimal concentration” value in test [2] was 0.5 µg/mL. Besides, the “rescue of PAX6 haploinsufficiency in vitro” value in test [3] (FIG. 1: mut-LT limbal stem cells, 0.5 (unit uncertain), 10 h, qRT-PCR for PAX6-target gene expression (A), western blot for PAX6 protein (B)) is listed as “can rescue”. Also, the “rescue … of endogenous PAX6 protein” value in test [3] is recorded as “able to rescue”. Also, the “rescue of PAX6-target gene expression” value in test [4] is given as “able to rescue”. The “amplification of the mutated allele (amplicons sequenced)” value in test [5] (FIG. 3: mut-LSCs + Topotecan) was “did not identified any amplification”. Moreover, the “WT allele transcription (PAX6 expression by qRT-PCR)” value in test [5] (FIG. 3: mutated cells (mut-LSC)) is “activates”. Also, the “PAX6 expression by qRT-PCR” value in test [5] (FIG. 3: treated WT-LSCs (normal LSCs)) is listed as “not enhanced”. Besides, the “rescue of PAX6 gene expression at the RNA level” value in test [5] (mutated limbal stem cells) is “able to rescue”.

Take `CNCC[C@H](Oc1cccc2ccccc12)c1cccs1` [Duloxetine, duloxetine]: the “rescue of cell migration” value in test [1] is “able to rescue”. Besides, in test [2], the “optimal concentration” value came out at 0.5 µg/mL. The PAX6 protein production result in test [3] (FIG. 5: W mutant limbal cells) is recorded as “rescued”. Further, the “rescue … of endogenous PAX6 protein” value in test [3] is “able to rescue”. In test [4], the “rescue of PAX6-target gene expression” value was “able to rescue”.

For “recombinant PAX6 protein: recombinant PAX6 protein coupled with an 11R-tag (recPAX6, LD Biopharma Inc), positive control”, the “rescue of altered PAX6 target gene expression, cell adhesion, cell migration and proliferation” value in test [6] is reported as “rescued”.

The record behind these values is patent US20220265659A1, “METHODS AND COMPOSITIONS FOR TREATING PAX6-DEFICIENCY RELATED DISEASE” (INSERM (INSTITUT NATIONAL DE LA SANTÉ ET DE AL RECHERCHE …, priority 2019, published 2022).
